# In patent publication US8084018B2, “Methods for imaging dopamine transporter level” (Alseres Pharmaceuticals, Inc., priority 2007, dated 2011):
# Several values for one entry are separate records, joined by “and”; a condition that tells them apart may be missing. Identical values can stand only once.
# Biological target: T1, dopamine transporter (Homo sapiens, UniProt Q01959)
# T1 construct: dynamic SPECT in Parkinson's subjects and similarly aged healthy control subjects; from tissue; host or cells: striatum (caudate and putamen) of living subjects, imaged in vivo
# Assay: 123I Altropane dynamic SPECT imaging of striatal dopamine transporter in Parkinson's disease and healthy control subjects
# Format: in vivo
# Settings: for Mean % test/retest difference: 15 PD subjects; for Total striatal binding ratio, Ratio (3-6): individual PD scans (paired test/retest), mean of scans 3-6, about 30 min from about 15 min post injection; for Peak Striatal:Occipital Ratio (peak SBR): single scan with highest uptake, 8 mCi i.v.
# Source text: The following example summarizes single photon emission computed tomographic (SPECT) image acquisition, analysis methods and results for Parkinson's disease research participants and healthy controls participating in an ^123I Altropane SPECT imaging study. The experiment is an open label study evaluating time-activity curves and striatal dopamine transporter occupancy over the first hour post injection of ^123I Altropane using temporally well-resolved dynamic SPECT in Parkinson's subjects and similarly aged healthy control subjects. In addition, for the PD subjects, a second injection and scan is performed on each subject on a separate test days to evaluate the test/retest reproducibility data for both visual and quantitative analyses.
# Fifteen idiopathic Parkinson's disease subjects are recruited through local advertising and word-of-mouth for enrollment in the study. Imaging is performed at Molecular NeuroImaging, LLC in New Haven, Conn., USA. ^123I Altropane is studied under the auspices of a physician-sponsored IND # 76,024, Dr. J. Seibyl physician sponsor using test article provided by MDS Nordion, Inc (Vancouver, BC, Canada). All subjects are provided informed consent prior to any study procedures. All fifteen subjects completed two separate injection and SPECT scan sessions with approximately 296 mBq (8 mCi) of ^123I Altropane. Subjects undergo motor ratings using the Unified Parkinson's Disease Rating Scale (UPDRS) following overnight period without anti-Parkinson medication administered by a movement disorder specialist. No PD subjects are terminated prior to achieving the study endpoint.
# Twelve healthy control subjects are recruited for participation in a single scan session with ^123I Altropane using the identical SPECT image acquisition protocol as the PD subjects. Healthy subjects are evaluated by a movement disorder specialist to confirm the absence of neurologic illness.
# SPECT scans are acquired for 60 minutes following the intravenous injection with 296 mBq (8.0 mCi) of ^123I Altropane. A series of dynamic SPECT scans are obtained as five scans at 6 minutes per acquisition followed by three scans at 10 minutes per acquisition. The subject remain in the camera for the duration of the acquisition. Each SPECT study is acquired on a Philips PRISM 3000XP triple-headed SPECT camera (Cleveland, Ohio, USA) fitted with fan-beam collimators. Each head rotates 360 degrees, sampling every 3 degrees for a total of 120 raw projection images per head. Projection data were collected in a 128×128 matrix within a symmetric energy window centered at 159 kEv (+/−10%).
# Data are re-constructed using filtered back projection and a simple ramp filter followed by a post hoc (3-D) standardized low pass filter. Attenuation correction was performed applying a Chang 0 correction and a mu of 0.11 cm^−1 using a standard or custom automated software package. Regions of interest (ROIs) are placed in the 3-head data with individual ROI sampling of the left and right caudate and putamen and an occipital background region. The ROIs were then applied to all images in the injection session (total of 24=8 time points×3 head conditions (1, 1&2, 1&2&3). To check for head movement within each scan session, five external skin fiducial markers containing 1 μCi of ^123I were place along the canthomeatal line (2 right side, 3 left side) prior to each SPECT scan. Total counts within the ROI, total volume, and count density (counts/voxel) were extracted from each scan and logged in a data spreadsheet for determination of striatal uptake ratios (SBR) defined as the density of counts (counts per voxel per minute) in the striatal region divided by the density of counts in the occipital background region. The mean striatal SBR scores were calculated as the mean of the left and right caudate and putamen SBR scores. Since sampling in striatal subregions used the identical size ROI, there was equal contribution from left and right caudate and putamen to the mean SBR. […]
# T1 sequence (Q01959 whole entry): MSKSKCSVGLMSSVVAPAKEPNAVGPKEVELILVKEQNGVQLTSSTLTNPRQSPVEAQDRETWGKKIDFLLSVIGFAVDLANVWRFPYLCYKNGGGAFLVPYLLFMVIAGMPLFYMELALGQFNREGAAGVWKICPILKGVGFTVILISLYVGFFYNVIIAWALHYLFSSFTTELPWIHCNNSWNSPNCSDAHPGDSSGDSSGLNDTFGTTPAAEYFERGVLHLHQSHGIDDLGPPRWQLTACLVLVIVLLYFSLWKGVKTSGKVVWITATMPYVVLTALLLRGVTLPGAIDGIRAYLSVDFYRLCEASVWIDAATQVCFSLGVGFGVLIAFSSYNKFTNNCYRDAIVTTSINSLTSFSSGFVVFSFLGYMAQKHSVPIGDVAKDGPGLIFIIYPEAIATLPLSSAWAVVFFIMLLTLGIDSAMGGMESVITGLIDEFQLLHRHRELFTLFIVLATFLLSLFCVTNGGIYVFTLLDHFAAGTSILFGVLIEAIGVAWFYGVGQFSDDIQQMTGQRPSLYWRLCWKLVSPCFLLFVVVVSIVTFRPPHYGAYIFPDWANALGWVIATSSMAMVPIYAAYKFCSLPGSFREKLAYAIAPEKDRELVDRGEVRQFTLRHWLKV
smiles,measurement,setting,value
"COC(=O)C1C(c2ccc(F)cc2)CC2CCC1N2C/C=C/I (stereo not drawn) [123I Altropane, 2β-carbomethoxy-3β-(4′-flurophenyl)-N-(3-iodo-E-allyl) nortropane]",Mean % test/retest difference,1 head,4.94%
same,Mean % test/retest difference,2 heads,5.11%
same,Mean % test/retest difference,3 heads,5.14%
same,time post injection of relative stability of binding ratios,"a PD and a control subject, FIG. 3",about 15 minutes
same,time post injection by which washout rates from striatum and occipital background are similar (stable striatal binding ratio),all subjects,20 to 30 min
same,time of peak striatal count densities post-injection,"controls and PD subjects, bolus injection",10 min
same,"Total striatal binding ratio, Ratio (3-6)",1 head,1.29 (4×) and 1.23 and 1.30 (2×) and 1.26 (3×) and 1.25 (3×) and 1.22 (2×) and 1.37 (2×) and 1.40 and 1.48 and 1.20 (2×) and 1.16 and 1.32 and 1.35 and 1.21 (2×) and 1.12 and 1.28 and 1.17 and 1.24
same,"Total striatal binding ratio, Ratio (3-6)",2 heads,1.29 and 1.27 (3×) and 1.35 and 1.37 and 1.31 and 1.32 (4×) and 1.30 and 1.36 and 1.43 and 1.47 and 1.60 and 1.25 and 1.21 and 1.19 and 1.38 (2×) and 1.40 and 1.24 (2×) and 1.12 and 1.26 and 1.33 (2×) and 1.20 and 1.45
same,"Total striatal binding ratio, Ratio (3-6)",3 heads,1.32 and 1.30 (2×) and 1.39 and 1.41 and 1.33 and 1.36 (2×) and 1.35 (2×) and 1.38 and 1.45 and 1.56 and 1.70 and 1.37 (2×) and 1.28 and 1.23 and 1.20 and 1.42 (2×) and 1.44 and 1.26 and 1.15 and 1.29 and 1.31 and 1.22 and 1.50 and 1.40 and 1.27
same,Peak Striatal:Occipital Ratio (peak SBR),"individual PD subjects, 1 head reconstruction",1.29 (2×) and 1.24 (2×) and 1.22 and 1.35 and 1.41 (2×) and 1.52 and 1.43 and 1.26 (2×) and 1.32 and 1.33 (2×)
same,Peak Striatal:Occipital Ratio (peak SBR),"individual PD subjects, 2 head reconstruction",1.28 (2×) and 1.27 (2×) and 1.25 and 1.41 and 1.46 and 1.66 and 1.53 and 1.26 and 1.36 and 1.32 and 1.43 and 1.37 and 1.39
same,Peak Striatal:Occipital Ratio (peak SBR),"individual PD subjects, 3 head reconstruction",1.30 (2×) and 1.25 and 1.44 (2×) and 1.74 and 1.60 and 1.33 and 1.34 and 1.45 (2×) and 1.35 and 1.39 and 1.28 and 1.43
same,Peak Striatal:Occipital Ratio (peak SBR),"individual healthy controls, 1 head reconstruction",1.49 and 1.57 and 1.79 and 1.47 and 1.56 and 1.63 and 1.64 and 1.86 and 1.52 and 1.50 and 1.66 and 1.51
same,Peak Striatal:Occipital Ratio (peak SBR),"individual healthy controls, 2 head reconstruction",1.66 and 1.67 and 1.95 and 1.62 and 1.68 and 1.79 and 1.77 and 2.10 and 1.59 and 1.55 and 1.84 and 1.61
same,Peak Striatal:Occipital Ratio (peak SBR),"individual healthy controls, 3 head reconstruction",1.81 (2×) and 1.79 and 2.06 and 1.69 and 1.90 and 1.93 and 2.30 and 1.71 and 1.68 and 1.86 and 1.77
same,mean SBR (peak Striatal:Occipital Ratio),"mean of 12 healthy controls, 1 head",1.60
same,mean SBR (peak Striatal:Occipital Ratio),"mean of 12 healthy controls, 2 head",1.74
same,mean SBR (peak Striatal:Occipital Ratio),"mean of 12 healthy controls, 3 head",1.86
same,mean SBR (peak Striatal:Occipital Ratio),"mean of 15 PD subjects, 1 head",1.33
same,mean SBR (peak Striatal:Occipital Ratio),"mean of 15 PD subjects, 2 head",1.37
same,mean SBR (peak Striatal:Occipital Ratio),"mean of 15 PD subjects, 3 head",1.41
same,elimination from brain,"most subjects, striatal and occipital regions",rapid elimination
same,time of peak SBR post injection,one and two head scenarios,≥ 15 min
